Patent publication US20170326100A1, “COMPOSITION FOR ACTIVATING LONGEVITY GENE” (AMOREPACIFIC CORPORATION, priority 2014, published 2017)
Entries after “also recorded” stand apart in the source; their conditions may differ.

How the values were obtained:
Klotho mRNA [1] = test: Klotho activation: relative expression of Klotho mRNA in fibroblasts (TaqMan RT-PCR); format: cell-based, human; details: fibroblasts (NHF), 24 hours, control = 1.0
Procedure: (§1) Experiment was conducted using normal human keratinocytes (NHK) and normal human fibroblasts (NHF) to investigate the effect of a methylated catechin. Specifically, 2×10^5 NHFs (normal human fibroblasts) purchased from Lonza (Allendale, N.J., USA) were cultured on a 60-mm dish at 37° C. for 24 hours using DMEM. The medium was discarded and the cells were transferred to a new tissue culture flask. Also, NHEKs (normal human epidermal keratinocytes, corresponding to NHK) purchased from Lonza (Allendale, N.J., USA) were cultured using a keratinocyte growth medium (KGM-GOLD, Lonza, Allendale, N.J., USA). The cells were detached with 0.025% trypsin and transferred to a new tissue culture flask after subculturing.
(§2) Specifically, after treating the keratinocytes (NHK) and the fibroblasts (NHF) with each of retinol (10 ppm), green tea EGCG (1 and 10 ppm) and green tea EGCG″3Me (1 and 10 ppm), followed by incubation at 37° C. for 24 hours, total RNA was isolated from the cells and the relative expression of Klotho mRNA was compared.
(§3) The total RNA was isolated using TRIzol™ (Invitrogen, Carlsbad, Calif., USA) according to the manufacturer's protocol. RNA concentration was measured spectrophotometrically and RNA integrity was measured using BioAnalyzer 2100 (Agilent Technologies, Santa Clara, Calif., USA). 4 μg of RNA was reverse transcribed to cDNA using SuperScript®III reverse transcriptase (Invitrogen, Carlsbad, Calif., USA). The cDNA was stored at −70° C. The expression level of the target gene was measured by quantitative real-time TaqMan RT-PCR (7500Fast, Applied Biosystems, Foster City, Calif., USA). The cycle condition was 10 minutes at 95° C., 50 cycles of […] at 95° C. and 1 minute at 60° C.

Sirt-1 mRNA [2] = test: Sirt-1 activation: relative expression of Sirt-1 mRNA in fibroblasts (TaqMan RT-PCR); format: cell-based, human; details: fibroblasts (NHF), 10 ppm, 24 hours, control = 1.0
Procedure: as §1
(§4) Specifically, after treating the keratinocytes (NHK) and the fibroblasts (NHF) with each of retinol, green tea EGCG and green tea EGCG″3Me at 10 ppm, followed by incubation at 37° C. for 24 hours, total RNA was isolated from the cells and the relative expression of Sirt-1 mRNA was compared.
as §3

Klotho mRNA [3] = test: Klotho activation: relative expression of Klotho mRNA in keratinocytes (TaqMan RT-PCR); format: cell-based, human; details: keratinocytes (NHK), 24 hours, control = 1.0
Procedure: as §1, §2, §3

XPD mRNA [4] = test: XPD activation: relative expression of XPD mRNA in fibroblasts (TaqMan RT-PCR); format: cell-based, human; details: fibroblasts (NHF), 10 ppm, 37° C. 24 hours, control = 1.0
Procedure: as §1
(§5) Specifically, after treating the keratinocytes (NHK) and the fibroblasts (NHF) with each of retinol, green tea EGCG and green tea EGCG″3Me at 10 ppm, followed by incubation at 37° C. for 24 hours, total RNA was isolated from the cells and the relative expression of XPD mRNA was compared.
as §3

Fox03 mRNA [5] = test: FoxO3 activation: relative expression of Fox03 mRNA in fibroblasts (TaqMan RT-PCR); format: cell-based, human; details: fibroblasts (NHF), 10 ppm, 24 hours, control = 1.0
Procedure: as §1
(§6) Specifically, after treating the keratinocytes (NHK) and the fibroblasts (NHF) with each of retinol, green tea EGCG and green tea EGCG″3Me at 10 ppm, followed by incubation at 37° C. for 24 hours, total RNA was isolated from the cells and the relative expression of Fox03 mRNA was compared.
as §3

ERCC8 mRNA [6] = test: ERCC8 activation: relative expression of ERCC8 mRNA in keratinocytes (TaqMan RT-PCR); format: cell-based, human; details: keratinocytes (NHK), 10 ppm, 24 hours, control = 1.0
Procedure: as §1
(§7) Specifically, after treating the keratinocytes (NHK) and the fibroblasts (NHF) with each of retinol, green tea EGCG and green tea EGCG″3Me at 10 ppm, followed by incubation at 37° C. for 24 hours, total RNA was isolated from the cells and the relative expression of ERCC8 mRNA was compared.
as §3

ERCC8 mRNA [7] = test: ERCC8 activation: relative expression of ERCC8 mRNA in fibroblasts (TaqMan RT-PCR); format: cell-based, human; details: fibroblasts (NHF), 10 ppm, 24 hours, control = 1.0
Procedure: as §1, §7, §3

Sirt-1 mRNA [8] = test: Sirt-1 activation: relative expression of Sirt-1 mRNA in keratinocytes (TaqMan RT-PCR); format: cell-based, human; details: keratinocytes (NHK), 10 ppm, 24 hours, control = 1.0
Procedure: as §1, §4, §3

Fox03 mRNA [9] = test: FoxO3 activation: relative expression of Fox03 mRNA in keratinocytes (TaqMan RT-PCR); format: cell-based, human; details: keratinocytes (NHK), 10 ppm, 24 hours, control = 1.0
Procedure: as §1, §6, §3

XPD mRNA [10] = test: XPD activation: relative expression of XPD mRNA in keratinocytes (TaqMan RT-PCR); format: cell-based, human; details: keratinocytes (NHK), 10 ppm, 37° C. 24 hours, control = 1.0
Procedure: as §1, §5, §3

[11] = system: normal human epidermal keratinocytes (NHEKs); test: Evaluation of cellular differentiation of keratinocytes; format: cell-based; details: various concentrations, 48 hours, FIG. 1
Procedure: In order to investigate the effect of the methylated catechin on the differentiation of keratinocytes, normal human epidermal keratinocytes (NHEKs) were treated with EGCG″3Me and EGCG at various concentrations for 48 hours.

Compound: O=C(O[C@@H]1Cc2c(O)cc(O)cc2O[C@@H]1c1cc(O)c(O)c(O)c1)c1cc(O)c(O)c(O)c1 [Green tea EGCG, epigallocatechin gallate]
- relative expression of Klotho mRNA (Klotho mRNA [1]; 1 ppm): 1.2
- relative expression of Klotho mRNA (Klotho mRNA [1]; 10 ppm): 1.8
- relative expression of Sirt-1 mRNA (Sirt-1 mRNA [2]): 2.0
- relative expression of Klotho mRNA (Klotho mRNA [3]; 1 ppm): 2.5
- relative expression of Klotho mRNA (Klotho mRNA [3]; 10 ppm): 10.2
- relative expression of XPD mRNA (XPD mRNA [4]): 2.8
- relative expression of Fox03 mRNA (Fox03 mRNA [5]): 2.1
- relative expression of ERCC8 mRNA (ERCC8 mRNA [6]): 1.9
- relative expression of ERCC8 mRNA (ERCC8 mRNA [7]): 2.3
- relative expression of Sirt-1 mRNA (Sirt-1 mRNA [8]): 8.2
- relative expression of Fox03 mRNA (Fox03 mRNA [9]): 1.4
- relative expression of XPD mRNA (XPD mRNA [10]): 9.2

Compound: CC1=C(/C=C/C(C)=C/C=C/C(C)=C/CO)C(C)(C)CCC1 [Retinol]
- relative expression of Klotho mRNA (Klotho mRNA [1]; 10 ppm): 2.2
- relative expression of Sirt-1 mRNA (Sirt-1 mRNA [2]): 1.9
- relative expression of Klotho mRNA (Klotho mRNA [3]; 10 ppm): 9.8
- relative expression of XPD mRNA (XPD mRNA [4]): 2.4
- relative expression of Fox03 mRNA (Fox03 mRNA [5]): 1.4
- relative expression of ERCC8 mRNA (ERCC8 mRNA [6]): 1.2
- relative expression of ERCC8 mRNA (ERCC8 mRNA [7]): 1.0
- relative expression of Sirt-1 mRNA (Sirt-1 mRNA [8]): 7.9
- relative expression of Fox03 mRNA (Fox03 mRNA [9]): 1.1
- relative expression of XPD mRNA (XPD mRNA [10]): 10.1

Compound: epigallocatechin-3-O-(3-O-methyl)gallate [Green tea EGCG3″Me]
- relative expression of Klotho mRNA (Klotho mRNA [1]; 1 ppm): 1.7
- relative expression of Klotho mRNA (Klotho mRNA [1]; 10 ppm): 2.1
- relative expression of Sirt-1 mRNA (Sirt-1 mRNA [2]): 4.3
- relative expression of Klotho mRNA (Klotho mRNA [3]; 1 ppm): 4.2
- relative expression of Klotho mRNA (Klotho mRNA [3]; 10 ppm): 10.5
- relative expression of XPD mRNA (XPD mRNA [4]): 6.9
- relative expression of Fox03 mRNA (Fox03 mRNA [5]): 5.3
- relative expression of ERCC8 mRNA (ERCC8 mRNA [6]): 4.3
- relative expression of ERCC8 mRNA (ERCC8 mRNA [7]): 5.1
- differentiation of keratinocytes [11]: promoted the differentiation of the keratinocytes in a concentration-dependent manner; also recorded: superior differentiation of the keratinocytes at low concentration as compared to EGCG
- relative expression of Sirt-1 mRNA (Sirt-1 mRNA [8]): 17.1
- relative expression of Fox03 mRNA (Fox03 mRNA [9]): 3.2
- relative expression of XPD mRNA (XPD mRNA [10]): 21.4
